Tests used:
Adenosine receptor A2b = target: T1, Adenosine receptor A2b (Homo sapiens, UniProt P29275)
T1 sequence (P29275 whole entry): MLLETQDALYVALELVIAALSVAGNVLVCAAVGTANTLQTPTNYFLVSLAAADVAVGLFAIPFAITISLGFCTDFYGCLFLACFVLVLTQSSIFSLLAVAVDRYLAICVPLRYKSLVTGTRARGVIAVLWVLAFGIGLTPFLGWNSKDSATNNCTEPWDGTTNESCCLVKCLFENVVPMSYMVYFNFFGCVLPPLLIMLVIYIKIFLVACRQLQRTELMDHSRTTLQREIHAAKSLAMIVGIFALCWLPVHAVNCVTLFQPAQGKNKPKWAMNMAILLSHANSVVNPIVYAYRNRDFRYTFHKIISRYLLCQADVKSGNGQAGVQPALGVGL
Description: Binding affinity to recombinant human adenosine A2B receptor

Adenosine receptor A2a [1] = target: T2, Adenosine receptor A2a (Homo sapiens, UniProt P29274)
Description: Binding affinity to recombinant human adenosine A2A receptor

[2] = target: T3, Adenosine receptor A2b (Homo sapiens) (UniProt P29275); assay: Displacement of [3H]DPCPX from recombinant human adenosine A2B receptor expressed in HEK293 cells at 0.1 uM; format: cell-based
T3 sequence (whole entry): T1 sequence (P29275 whole entry)

[3] = target: T3, Adenosine receptor A2b (Homo sapiens); assay: Displacement of [3H]DPCPX from recombinant human adenosine A2B receptor expressed in HEK293 cells at 0.01 uM
Adenosine receptor A2a [4] = target: T2, Adenosine receptor A2a; assay: Displacement of [3H]ZM-241385 from recombinant human adenosine A2A receptor expressed in HeLa cells at 0.1 uM

T2 sequence (P29274 whole entry): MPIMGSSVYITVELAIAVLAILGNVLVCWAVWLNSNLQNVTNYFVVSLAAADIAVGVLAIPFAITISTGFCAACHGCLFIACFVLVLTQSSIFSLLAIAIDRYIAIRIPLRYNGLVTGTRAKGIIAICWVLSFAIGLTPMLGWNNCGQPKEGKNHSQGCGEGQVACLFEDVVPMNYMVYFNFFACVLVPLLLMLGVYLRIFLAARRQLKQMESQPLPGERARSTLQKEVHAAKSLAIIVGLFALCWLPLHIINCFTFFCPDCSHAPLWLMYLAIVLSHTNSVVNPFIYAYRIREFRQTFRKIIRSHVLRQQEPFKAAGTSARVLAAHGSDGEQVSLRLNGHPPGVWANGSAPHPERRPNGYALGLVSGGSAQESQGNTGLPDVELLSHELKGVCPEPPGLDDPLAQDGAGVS

Compound	Ki (Adenosine receptor A2b)	Ki (Adenosine receptor A2a [1])	inhibition [2]	inhibition [3]	inhibition (Adenosine receptor A2a [4])
CCCn1c(=O)c2[nH]c(-c3cc(OCC(=O)c4ccc(C)cc4)nn3C)nc2n(CCC)c1=O	> 1000 nM	19.1 nM	–	–	–
CC(Oc1ccc(-c2cc3c([nH]2)c(=O)n(C)c(=O)n3C)cc1)C(=O)Nc1ccc(F)cc1 (stereo not drawn)	3.89 nM	–	99%	76%	70%
CCOC(=O)COc1ccc(-c2cc3c([nH]2)c(=O)n(CC)c(=O)n3CCCOC)cc1	66.1 nM	447 nM	57%	–	16%
CCOC(=O)COc1ccc(-c2cc3c([nH]2)c(=O)n(C)c(=O)n3C)cc1	288 nM	1950 nM	25%	–	10%
CCCn1c(=O)c2[nH]c(-c3ccc(OCC(=O)O)cc3)c(Br)c2n(CCC)c1=O	79.4 nM	490 nM	48%	–	11%
CCCn1c(=O)c2[nH]c(-c3ccc(OC(C)C(=O)O)cc3)cc2n(CCC)c1=O (stereo not drawn)	43.7 nM	1000 nM	44%	–	8%
CCCn1c(=O)c2[nH]c(-c3ccc(OCC(=O)Nc4ccc(S(N)(=O)=O)cc4)cc3)cc2n(CCC)c1=O	200 nM	–	53%	10%	37%
CCCn1c(=O)c2nc(-c3cc(OCC(=O)c4ccc(C(=O)OCC)cc4)nn3C)[nH]c2n(CCC)c1=O	> 1000 nM	32.4 nM	–	–	–
CCCn1c(=O)c2nc(-c3cc(OCC(=O)c4ccc(Br)cc4)n(C)n3)[nH]c2n(CCC)c1=O	> 1000 nM	93.3 nM	–	–	–
CCCn1c(=O)c2[nH]c(-c3ccc(OCC(=O)O)cc3)cc2n(C)c1=O	43.7 nM	4070 nM	63%	–	21%
Cn1c(=O)c2[nH]c(-c3ccc(OCC(=O)Nc4nc5ccccc5[nH]4)cc3)cc2n(C)c1=O	20 nM	–	80%	24%	34%
COc1cc(OCC(=O)O)ccc1-c1cc2c([nH]1)c(=O)n(C)c(=O)n2C	1550 nM	–	3%	–	1%
CCCn1c(=O)c2[nH]c(-c3ccc(OCC(=O)NCc4ccc(Cl)cc4)cc3)cc2n(C)c1=O	20.4 nM	–	76%	33%	20%
CCn1c(=O)c2[nH]c(-c3ccc(OCC(=O)O)cc3)cc2n(CCCOC)c1=O	72.4 nM	933 nM	66%	–	20%
CCCn1c(=O)c2nc(-c3cc(OCC(=O)c4ccc(F)cc4)nn3C)[nH]c2n(CCC)c1=O	> 1000 nM	12.6 nM	–	–	–
CCCn1c(=O)n(C)c(=O)c2[nH]c(-c3ccc(OCC(=O)O)cc3)cc21	45.7 nM	776 nM	51%	–	15%
CCCn1c(=O)c2nc(-c3cc(OCC(=O)c4ccc(F)cc4)n(C)n3)[nH]c2n(CCC)c1=O	> 1000 nM	186 nM	–	–	–
CCCn1c(=O)c2[nH]c(-c3cc(OCC(=O)c4ccc(Br)cc4)nn3C)nc2n(CCC)c1=O	> 1000 nM	25.1 nM	–	–	–
CCCn1c(=O)c2[nH]c(-c3ccc(OCC(=O)c4ccc(I)cc4)cc3)nc2n(CCC)c1=O	5890 nM	2.14 nM	–	–	–
CCCn1c(=O)c2[nH]c(-c3ccc(OCC(=O)Nc4ccc(C(=O)c5ccccc5)cc4)cc3)cc2n(CCC)c1=O	77.6 nM	–	51%	11%	13%
CCOC(=O)COc1ccc(-c2cc3c([nH]2)c(=O)n(C)c(=O)n3C)cc1OC	1510 nM	3720 nM	8%	–	18%
CCCn1c(=O)c2[nH]c(-c3ccc(OCC(=O)Nc4ccc(C(C)=O)cc4)cc3)cc2n(CCC)c1=O	20 nM	–	62%	24%	15%

Compound	Ki (Adenosine receptor A2b)	Ki (Adenosine receptor A2a [1])	inhibition [2]	inhibition [3]	inhibition (Adenosine receptor A2a [4])
COc1cc(-c2cc3c([nH]2)c(=O)n(C)c(=O)n3C)ccc1OCC(=O)O	269 nM	–	15%	–	5%
CCCn1c(=O)c2nc(-c3cc(OCC(=O)c4ccc(C(C)=O)cc4)nn3C)[nH]c2n(CCC)c1=O	> 1000 nM	87.1 nM	–	–	–
CCCn1c(=O)c2[nH]c(-c3ccc(OCC(=O)Nc4ccc(C)cc4)cc3)cc2n(CCC)c1=O	14.1 nM	–	81%	27%	44%
O=C(COc1ccc(-c2cc3c([nH]2)c(=O)n(CC2CC2)c(=O)n3CC2CC2)cc1)Nc1ccc(F)cc1	–	–	95%	57%	98%
CCCn1c(=O)c2nc(-c3ccc(OCC(=O)c4ccc(I)cc4)cn3)[nH]c2n(CCC)c1=O	> 1000 nM	11 nM	–	–	–
CCOC(=O)COc1ccc(-c2cc3c([nH]2)c(=O)n(C)c(=O)n3C)c(OC)c1	2190 nM	–	10%	–	11%
CCCn1c(=O)c2[nH]c(-c3ccc(OCC(=O)Nc4ccc(I)cc4)cc3)cc2n(C)c1=O	5.89 nM	–	97%	51%	24%
CCCn1c(=O)c2[nH]c(-c3ccc(OCC(=O)Nc4ccc(Br)cc4)cc3OC)cc2n(CCC)c1=O	–	–	64%	18%	39%
CCCn1c(=O)c2[nH]c(-c3ccc(OCC(=O)c4ccc(I)cc4)nn3)nc2n(CCC)c1=O	> 1000 nM	> 1000 nM	–	–	–
CCCn1c(=O)c2[nH]c(-c3ccc(OCC(=O)Nc4ccc(Cl)cc4)cc3)nc2n(CCC)c1=O	7.94 nM	191 nM	–	–	–
CCCn1c(=O)c2[nH]c(-c3ccc(OCC(=O)Nc4ccc(CC(=O)OCC)cc4)cc3)cc2n(C)c1=O	132 nM	–	35%	10%	0%
CCCn1c(=O)c2[nH]c(-c3ccc(OC(C(=O)O)c4ccccc4)cc3)cc2n(CCC)c1=O (stereo not drawn)	–	–	47%	10%	5%
CCCn1c(=O)c2[nH]c(-c3ccc(OCC(=O)OCC)cc3)cc2n(CCC)c1=O	–	–	55%	9%	21%
CCCn1c(=O)c2[nH]c(-c3ccc(OCC(=O)O)cc3)cc2n(CCC)c1=O	15.8 nM	123 nM	–	–	–
Cn1c(=O)c2[nH]c(-c3ccc(OC(C)(C)C(=O)O)cc3)cc2n(C)c1=O	–	–	14%	3%	2%
CCCn1c(=O)c2[nH]c(-c3ccc(OCC(=O)Nc4ccc(I)cc4)cc3)nc2n(CCC)c1=O	–	5890 nM	–	–	–
O=C(O)COc1ccc(-c2cc3c([nH]2)c(=O)n(CC(F)(F)F)c(=O)n3CC(F)(F)F)cc1	–	–	22%	16%	19%
O=C(COc1ccc(-c2cc3c([nH]2)c(=O)n(CC2CC2)c(=O)n3CC2CC2)cc1)Nc1ccc(Br)cc1	–	–	94%	43%	89%
CCCn1c(=O)c2[nH]c(-c3ccc(OC(C(=O)Nc4ccccc4)c4ccccc4)cc3)cc2n(CCC)c1=O (stereo not drawn)	–	–	89%	44%	75%
CC(=O)c1ccc(NC(=O)COc2ccc(-c3cc4c([nH]3)c(=O)n(C)c(=O)n4C)cc2)cc1	3.55 nM	–	91%	65%	36%
CC(C)Cn1c(=O)c2[nH]c(-c3ccc(OCC(=O)Nc4ccccc4)cc3)cc2n(C)c1=O	–	–	57%	15%	2%

— ChEMBL document CHEMBL1148617, “Design, synthesis, and structure-activity relationships of 1-,3-,8-, and 9-substituted-9-deazaxanthines at the human A2B adenosine receptor” (J Med Chem, 2006)
